Measurements as given in patent US20240277846A1, “MAGNETIC BIOMOLECULE-METAL ION SELF-ASSEMBLED COMPLEX FOR TREATMENT” (priority 2023, published 2024).
Where a name gives a salt, the structure may show the parent alone. One block for each molecule: values may come before it.

Columns and labels:
macrophages = assay: Macrophage polarization (immunofluorescence Arg-1/iNOS, flow cytometry); type: cell-based; details: immunofluorescence staining
Text: FIG. 15 to FIG. 17 show experiments according to each of the treatment conditions in cells before experimenting in rats according to Experimental Example 2 below. As shown in a following table 6, the conditions were divided into the control group: PBS only based treatment, Fe-ATP based treatment, ATP only based treatment, FeCl2 based treatment, and Fe3O4 based treatment. FIG. 15 is the result of identifying disassembling of the Fe-ATP self-assembly. Referring to FIG. 15, under each treatment condition, an experiment result was identified via immunofluorescence staining of […] (M2 polarization marker), iNOS (M1 polarization marker), and Dapi. […] This was identified through flow cytometry.

P2X7 = molecular target: T1, P2X7 (Homo sapiens, UniProt Q99572); assay: Western blotting of macrophage signaling, P2X7; type: cell-based; details: low concentration
T1 construct: endogenous in cells
T1 sequence (Q99572 1-595): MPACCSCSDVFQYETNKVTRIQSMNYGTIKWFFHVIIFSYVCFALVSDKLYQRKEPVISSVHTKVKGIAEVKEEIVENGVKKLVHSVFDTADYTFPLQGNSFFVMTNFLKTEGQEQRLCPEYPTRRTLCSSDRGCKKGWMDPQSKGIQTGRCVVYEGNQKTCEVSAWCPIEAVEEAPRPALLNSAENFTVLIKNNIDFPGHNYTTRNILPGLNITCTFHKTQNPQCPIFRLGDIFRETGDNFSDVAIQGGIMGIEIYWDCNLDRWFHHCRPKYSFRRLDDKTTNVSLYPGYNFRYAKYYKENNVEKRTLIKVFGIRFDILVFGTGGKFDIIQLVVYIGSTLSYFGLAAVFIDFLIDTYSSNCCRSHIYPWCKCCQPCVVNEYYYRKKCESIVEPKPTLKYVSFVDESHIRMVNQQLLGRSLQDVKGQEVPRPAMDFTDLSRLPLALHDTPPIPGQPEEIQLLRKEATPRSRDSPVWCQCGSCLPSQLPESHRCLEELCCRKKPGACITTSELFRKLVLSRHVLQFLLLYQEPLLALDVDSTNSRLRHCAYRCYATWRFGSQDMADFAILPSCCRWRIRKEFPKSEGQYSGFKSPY
Text: (§1) It was identified that the Fe-ATP self-assembly was disassembled into the ATP and the iron ion such that the ATP was released therefrom, and this enabled AIP-mediated anti-inflammatory polarization of macrophages.

P2Y1 = molecular target: T2, P2Y1 (Homo sapiens, UniProt P47900); assay: Western blotting of macrophage signaling, P2Y1; type: cell-based; details: low concentration
T2 construct: endogenous in cells
T2 sequence (P47900 whole entry, species assumed): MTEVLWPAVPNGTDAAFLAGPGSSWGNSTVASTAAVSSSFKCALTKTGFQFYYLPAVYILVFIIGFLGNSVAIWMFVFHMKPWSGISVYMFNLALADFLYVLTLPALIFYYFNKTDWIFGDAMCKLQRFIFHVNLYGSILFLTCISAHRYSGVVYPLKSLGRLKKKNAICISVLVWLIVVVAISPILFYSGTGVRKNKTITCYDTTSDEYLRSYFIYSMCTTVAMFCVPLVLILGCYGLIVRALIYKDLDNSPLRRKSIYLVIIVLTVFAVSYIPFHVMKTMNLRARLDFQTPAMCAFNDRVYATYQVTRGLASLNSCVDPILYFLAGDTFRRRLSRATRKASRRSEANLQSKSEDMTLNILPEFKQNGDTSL
Text: as §1

stem cells = assay: Osteogenic differentiation of stem cells (RUNX2, osteocalcin immunofluorescence, ALP staining); type: cell-based
Text: FIG. 27 and FIG. 28 show experiments according to each of treatment conditions in cells before experimenting in rabbits according to Experimental Example 3 below. As shown in a following table 7, the treatment conditions include treatment with only PBS as a control group, treatment with Fe-AMP, treatment with AMP only, treatment with a combination of adenosine and PO4 (Adenosine+PO4), treatment with Adenosine, treatment with PO4, treatment with FeCl2, and treatment with an osteogenic induction medium. In this regard, FeCl2 was disassembled into Fe^2+ and Cl—. Thus, the treatment with FeCl2 was added to compare the released Fe^2+ therefrom with the Fe^2+ released from the […]. […] The adenosine obtained via decomposition of the AMP released from the Fe-AMP self-assembly was similar to osteogenic differentiation medium, and was analyzed via actin and dapi-positive nuclei and ALP chemical staining along with immunofluorescence staining of RUNX2 and osteocalcin. […] In other words, the Fe-AMP self-assembly induces osteogenic differentiation of stem cells through adenosine signaling. This was identified via immunofluorescence staining of RUNX2 and osteocalcin along with actin, dapi-positive nuclei, and ALP chemical staining.

hMSCs = assay: Western blotting of osteogenic differentiation via adenosine-A2B receptor signaling; type: cell-based
ROS = assay: IVIS L-012 ROS signal analysis in vivo; design: species or system mouse; details: 2 hours after the injection
Experimental: Luminescent probes L-012 (Wako Chemical, Korea) were dissolved in […] a thus prepared solution was maintained in a fresh state just before the experiment. In a 50 […] injection volume, 25 mg/kg thereof was administered subcutaneously to a back of a mouse. Chemiluminescence (CL) release assessment was started immediately after the injection of L-012 using indiGOTM software and IVIS (In vivo Imaging System, NightOWL II LB 983, BERTHOLD Technologies GmbH, Germany). To collect sufficient CL release data, the mouse was exposed thereto for 20 seconds each time. CL released from the mouse skin was recorded and visualized in real time, and then the CL released in an area of interest was quantified as total flux (photons/second).

P2X7 signaling (P2X7): inhibited P2X7 signaling | P2Y1 signaling (P2Y1): stimulated P2Y1 signaling
SMILES: Nc1ncnc2c1ncn2[C@@H]1O[C@H](COP(=O)([O-])OP(=O)([O-])OP(=O)(O)O)[C@@H](O)[C@H]1O.[Na+].[Na+] [ATP, Adenosine 5′-triphosphate disodium salt]
Arg-1 (M2 polarization marker) expression (macrophages): strongly expressed

SMILES: Nc1ncnc2c1ncn2[C@@H]1O[C@H](CO)[C@@H](O)[C@H]1O [Adenosine]
Osteogenic differentiation of stem cells (stem cells): induced the osteogenic differentiation to a similar level thereto

SMILES: CCCn1c(=O)[nH]c2nc(-c3ccc(S(=O)(=O)N4CCN(c5ccc(Cl)cc5)CC4)cc3)[nH]c2c1=O [PSB 603]
Osteogenic differentiation of hMSCs (hMSCs): osteogenic differentiation of hMSCs was inhibited

SMILES: COc1cccc2c1C(=O)c1c(O)c3c(c(O)c1C2=O)C[C@@](O)(C(=O)CO)C[C@@H]3O[C@H]1C[C@H](N)[C@H](O)[C@H](C)O1 [Doxorubicin (DOX), Doxorubicin hydrochloride]
ROS production in vivo (L-012 signal) (ROS): has little effect on the ROS release in a short period of time

SMILES: [Cl][Fe][Cl] [FeCl2, Iron(II) chloride]
Arg-1 (M2 polarization marker) expression (macrophages): not expressed
